Where no end group is shown, it is not given here. [ ]: non-standard residue; d: D form. Lys(Me3) = C[N+](C)(C)CCCC[C@H](N)C(=O)O

Results on 7 molecules are retold here after PMC3022755, “HP1 Recruits Activity-Dependent Neuroprotective Protein to H3K9me3 Marked Pericentromeric Heterochromatin for Silencing of Major Satellite Repeats” (PLoS ONE, 2011).

The test system of assay [1] is recombinant HP1β. The assay is described as follows: Fluorescence polarization binding assay. The arrangement: species or system human. The settings on record: fluorescein-labeled peptide, averaged from three independent titration reactions.
Assay [2] relates to three isoforms of HP1, HP1α HP1β and HP1γ, and CDYL1. The assay is described as follows: H3 peptide pulldown of HeLa S3 nuclear extract, MS/MS identification. The format is binding. Particulars: SDS-PAGE.
Assay [3] deals with HP1 isoform proteins. The format is binding, human.
Assay [4] relates to FLAG-tagged ADNP. The experiment in a line: H3 peptide pulldown with TNT-expressed FLAG-tagged ADNP. The format is binding. Particulars: TNT reticulocyte extract, western blot. (A western blot detects proteins with antibodies after separation by electrophoresis.)
Assay [5] has as its system ADNP. The experiment in a line: H3 peptide pulldown of HeLa S3 nuclear extract, western blot. The settings on record: immobilized H3 (aa 1-21) peptides on magnetic beads, monoclonal anti-ADNP. In kind it is binding.
Assay [6] deals with wild type FLAG-tagged ADNP. The experiment in a line: H3K9me3 peptide pulldown, recruitment of ADNP by mutant HP1β. The format is binding. The settings on record: compared to wild type HP1β; wild type FLAG-tagged ADNP in TNT reticulocyte extract; western blot.
The subject of assay [7] is PxVxL. The settings on record: ref [27]; cited from earlier work. An excerpt: (§1) We analyzed this recombinant, mutant HP1βprotein in H3K9me3 peptide pulldown experiments with wild type FLAG-tagged ADNP expressed in TNT reticulocyte extract (Figure 5D). W170A mutation had no effect on HP1β bi ...
The test system of assay [8] is HP1 dimerization and H3K9me3. Particulars: ref [27]; cited from earlier work.
Description: as §1

In assay [9] the test system is H3K9me3 peptide. The assay is described as follows: H3K9me3 peptide pulldown with mutant HP1β. The format is binding. The settings on record: H3K9me3 peptides on magnetic beads; with ADNP-FLAG; western blot.
The subject of assay [10] is pericentromeric heterochromatin in NIH3T3 cells. The experiment in a line: Localization of CFP-ADNP constructs in living NIH3T3 cells. The format is cell-based, mouse. Particulars: transient co-expression with RFP-HP1β; unfixed, living cells of low expression level; confocal.
Assay [11] has the same test system. The assay is described as follows: Localization of YFP-ADNP fusion proteins in living NIH3T3 cells. The format is cell-based, mouse. Particulars: inducible stable NIH3T3 lines, unfixed; for localization to pericentromeric heterochromatin: Hoechst 33342.
Assay [12] concerns H3K9me3 peptide. The format is binding.

With “EDDSYEAR[Lys(Me3)]SFLTKY [ADNPK767me3 (FP peptide), ADNPK767me3 peptide used for FP measurements]”, the HP1 binding result in assay [1] is “does not bind”; in assay [1] (listed as methylated peptide spanning the ADNP ARKS region), “did not detect binding”.

Take “H3K9me3: H3 (aa 1-21) peptide trimethylated at lysine 9, used for pulldown”: the “proteins specifically interacting with H3 tail depending on K9me3” value in assay [2] is “several known H3K9me3 interaction partners like the three isoforms of HP1”. Besides, the “recruitment of HP1 isoform proteins to peptide” value in [3] is on record as “concomitant with recruitment of the different HP1 isoform proteins to the H3K9me3 matrix”. The “binding of ADNP to peptide” value in assay [4] (co-incubated with recombinant HP1α) was “bound specifically to the H3K9me3 peptide”; in assay [4] (co-incubated with recombinant HP1β), “bound specifically to the H3K9me3 peptide”; in [4] (co-incubated with recombinant HP1γ) it was “bound specifically to the H3K9me3 peptide”; in assay [4] (without HP1), “did not bind to any of the differentially loaded beads”. In assay [5], the “enrichment of ADNP on peptide matrix” value is “specific enrichment of ADNP exclusively on the H3K9me3 matrix”.

As to “HP1β W170A: recombinant His6-HP1β with tryptophan 170 mutated to alanine”, the “recruitment of ADNP to H3K9me3 in presence of mutant HP1β” value in assay [6] was “severely impaired”. The HP1-PxVxL interaction result in [7] is given as “abolish HP1-PxVxL interaction”. Moreover, the “HP1 dimerization and H3K9me3 binding” value in [8] was “without affecting HP1 dimerization and H3K9me3 binding”. Further, the “HP1β binding to H3K9me3 peptide” value in assay [9] is given as “no effect on HP1β binding to the H3K9me3 peptide”.

B1: CFP-ADNP(701-846): CFP fusion of the ADNP homeodomain alone, containing NLS (protein, UniProt Q9Z103 701-846, looked up, fragment)
chain: APSRLNQSPGLAPVKRTYEQMEFPLLKKRKLEEDADSPSCFEEKPEEPVVLALDPKGHEDDSYEARKSFLTKYFNKQPYPTRREIEKLAASLWLWKSDIASHFSNKRKKCVRDCEKYKPGVLLGFNMKELNKVKHEMDFDAEWLFE
modifications: CFP fusion
notes: CFP fusion of the ADNP homeodomain alone, containing NLS
For the molecule B1, the “localization to pericentromeric heterochromatin” value (“localization” below) in assay [10] is “co-localized with HP1β”.

B2: K767R: YFP-ADNP fusion protein with K767R mutation in ARKS motif (protein, UniProt Q9Z103 1-1108, looked up, variant K767R)
Activity-dependent …: MFQLPVNNLGSLRKARKTVKKILSDIGLEYCKEHIEDFKQFEPNDFYLKNTTWEDVGLWDPSLTKNQDYRTKPFCCSACPFSSKFFSAYKSHFRNVHSEDFENRILLNCPYCTFNADKKTLETHIKIFHAPNSSAPSSSLSTFKDKNKNDGLKPKQADNVEQAVYYCKKCTYRDPLYEIVRKHIYREHFQHVAAPYIAKAGEKSLNGAVSLGTNAREECNIHCKRCLFMPKSYEALVQHVIEDHERIGYQVTAMIGHTNVVVPRAKPLMLIAPKPQDKKGMGLPPRISSLASGNVRSLPSQQMVNRLSIPKPNLNSTGVNMMSNVHLQQNNYGVKSVGQSYGVGQSVRLGLGGNAPVSIPQQSQSVKQLLPSGNGRSFGLGAEQRPPAAARYSLQTANTSLPPGQVKSPSVSQSQASRVLGQSSSKPPPAATGPPPSNHCATQKWKICTICNELFPENVYSVHFEKEHKAEKVPAVANYIMKIHNFTSKCLYCNRYLPTDTLLNHMLIHGLSCPYCRSTFNDVEKMAAHMRMVHIDEEMGPKTDSTLSFDLTLQQGSHTNIHLLVTTYNLRDAPAESVAYHAQNNAPVPPKPQPKVQEKADVPVKSSPQAAVPYKKDVGKTLCPLCFSILKGPISDALAHHLRERHQVIQTVHPVEKKLTYKCIHCLGVYTSNMTASTITLHLVHCRGVGKTQNGQDKTNAPSRLNQSPGLAPVKRTYEQMEFPLLKKRKLEEDADSPSCFEEKPEEPVVLALDPKGHEDDSYEARRSFLTKYFNKQPYPTRREIEKLAASLWLWKSDIASHFSNKRKKCVRDCEKYKPGVLLGFNMKELNKVKHEMDFDAEWLFENHDEKDSRVNASKTVDKKHNLGKEDDSFSDSFEHLEEESNGSGSPFDPVFEVEPKIPSDNLEEPVPKVIPEGALESEKLDQKEEEEEEEEEDGSKYETIHLTEEPAKLMHDASDSEVDQDDVVEWKDGASPSESGPGSQQISDFEDNTCEMKPGTWSDESSQSEDARSSKPAAKKKATVQDDTEQLKWKNSSYGKVEGFWSKDQSQWENASENAERLPNPQIEWQNSTIDSEDGEQFDSMTDGVADPMHGSLTGVKLSSQQA
modifications: YFP fusion
notes: YFP-ADNP fusion protein with K767R mutation in ARKS motif
B2: the “localization” value in assay [11] is “no effect on ADNP localization”.

B3: K767R mutant ADNP: FLAG-tagged ADNP, lysine 767 within the ARKS motif changed to arginine (protein, UniProt Q9Z103 1-1108, looked up, variant K767R)
Activity-dependent …: MFQLPVNNLGSLRKARKTVKKILSDIGLEYCKEHIEDFKQFEPNDFYLKNTTWEDVGLWDPSLTKNQDYRTKPFCCSACPFSSKFFSAYKSHFRNVHSEDFENRILLNCPYCTFNADKKTLETHIKIFHAPNSSAPSSSLSTFKDKNKNDGLKPKQADNVEQAVYYCKKCTYRDPLYEIVRKHIYREHFQHVAAPYIAKAGEKSLNGAVSLGTNAREECNIHCKRCLFMPKSYEALVQHVIEDHERIGYQVTAMIGHTNVVVPRAKPLMLIAPKPQDKKGMGLPPRISSLASGNVRSLPSQQMVNRLSIPKPNLNSTGVNMMSNVHLQQNNYGVKSVGQSYGVGQSVRLGLGGNAPVSIPQQSQSVKQLLPSGNGRSFGLGAEQRPPAAARYSLQTANTSLPPGQVKSPSVSQSQASRVLGQSSSKPPPAATGPPPSNHCATQKWKICTICNELFPENVYSVHFEKEHKAEKVPAVANYIMKIHNFTSKCLYCNRYLPTDTLLNHMLIHGLSCPYCRSTFNDVEKMAAHMRMVHIDEEMGPKTDSTLSFDLTLQQGSHTNIHLLVTTYNLRDAPAESVAYHAQNNAPVPPKPQPKVQEKADVPVKSSPQAAVPYKKDVGKTLCPLCFSILKGPISDALAHHLRERHQVIQTVHPVEKKLTYKCIHCLGVYTSNMTASTITLHLVHCRGVGKTQNGQDKTNAPSRLNQSPGLAPVKRTYEQMEFPLLKKRKLEEDADSPSCFEEKPEEPVVLALDPKGHEDDSYEARRSFLTKYFNKQPYPTRREIEKLAASLWLWKSDIASHFSNKRKKCVRDCEKYKPGVLLGFNMKELNKVKHEMDFDAEWLFENHDEKDSRVNASKTVDKKHNLGKEDDSFSDSFEHLEEESNGSGSPFDPVFEVEPKIPSDNLEEPVPKVIPEGALESEKLDQKEEEEEEEEEDGSKYETIHLTEEPAKLMHDASDSEVDQDDVVEWKDGASPSESGPGSQQISDFEDNTCEMKPGTWSDESSQSEDARSSKPAAKKKATVQDDTEQLKWKNSSYGKVEGFWSKDQSQWENASENAERLPNPQIEWQNSTIDSEDGEQFDSMTDGVADPMHGSLTGVKLSSQQA
modifications: FLAG tag
notes: FLAG-tagged ADNP, lysine 767 within the ARKS motif changed to arginine
Consider B3, for which the “binding of ADNP protein to H3K9me3 peptide” value in assay [12] was “bound to H3K9me3 peptide in a HP1β dependent manner”.

B4: V821E: YFP-ADNP fusion protein with V821E mutation in PGVLL motif (protein, UniProt Q9Z103 1-1108, looked up, variant V821E)
Activity-dependent …: MFQLPVNNLGSLRKARKTVKKILSDIGLEYCKEHIEDFKQFEPNDFYLKNTTWEDVGLWDPSLTKNQDYRTKPFCCSACPFSSKFFSAYKSHFRNVHSEDFENRILLNCPYCTFNADKKTLETHIKIFHAPNSSAPSSSLSTFKDKNKNDGLKPKQADNVEQAVYYCKKCTYRDPLYEIVRKHIYREHFQHVAAPYIAKAGEKSLNGAVSLGTNAREECNIHCKRCLFMPKSYEALVQHVIEDHERIGYQVTAMIGHTNVVVPRAKPLMLIAPKPQDKKGMGLPPRISSLASGNVRSLPSQQMVNRLSIPKPNLNSTGVNMMSNVHLQQNNYGVKSVGQSYGVGQSVRLGLGGNAPVSIPQQSQSVKQLLPSGNGRSFGLGAEQRPPAAARYSLQTANTSLPPGQVKSPSVSQSQASRVLGQSSSKPPPAATGPPPSNHCATQKWKICTICNELFPENVYSVHFEKEHKAEKVPAVANYIMKIHNFTSKCLYCNRYLPTDTLLNHMLIHGLSCPYCRSTFNDVEKMAAHMRMVHIDEEMGPKTDSTLSFDLTLQQGSHTNIHLLVTTYNLRDAPAESVAYHAQNNAPVPPKPQPKVQEKADVPVKSSPQAAVPYKKDVGKTLCPLCFSILKGPISDALAHHLRERHQVIQTVHPVEKKLTYKCIHCLGVYTSNMTASTITLHLVHCRGVGKTQNGQDKTNAPSRLNQSPGLAPVKRTYEQMEFPLLKKRKLEEDADSPSCFEEKPEEPVVLALDPKGHEDDSYEARKSFLTKYFNKQPYPTRREIEKLAASLWLWKSDIASHFSNKRKKCVRDCEKYKPGELLGFNMKELNKVKHEMDFDAEWLFENHDEKDSRVNASKTVDKKHNLGKEDDSFSDSFEHLEEESNGSGSPFDPVFEVEPKIPSDNLEEPVPKVIPEGALESEKLDQKEEEEEEEEEDGSKYETIHLTEEPAKLMHDASDSEVDQDDVVEWKDGASPSESGPGSQQISDFEDNTCEMKPGTWSDESSQSEDARSSKPAAKKKATVQDDTEQLKWKNSSYGKVEGFWSKDQSQWENASENAERLPNPQIEWQNSTIDSEDGEQFDSMTDGVADPMHGSLTGVKLSSQQA
modifications: YFP fusion
notes: YFP-ADNP fusion protein with V821E mutation in PGVLL motif
As to B4, the “localization” value in assay [11] is “strong reduction of the ADNP signal at regions of pericentromeric heterochromatin”. In assay [11] (in all cells analyzed), the “residual signal at pericentromeric heterochromatin” value is “faint but significant signal”.
